A short description of series [1]: Hydrolytic stability of the compound in dimethyl sulfoxide after 1 to 24 hrs by NMR spectroscopic analysis. It is filed as physicochemical.
Series [2] in a line: Hydrolytic stability of the compound in phosphate buffer at pH 7.4 after 1 to 24 hrs by NMR spectroscopic analysis. It is filed as physicochemical.
Series [3] is described as follows: Hydrolytic stability of the compound in acetonitrile after 1 to 24 hrs by NMR spectroscopic analysis. It is filed as physicochemical.
The target of series [4] is T1, Amine oxidase [flavin-containing] A (Homo sapiens, UniProt P21397).
T1 sequence (P21397 whole entry): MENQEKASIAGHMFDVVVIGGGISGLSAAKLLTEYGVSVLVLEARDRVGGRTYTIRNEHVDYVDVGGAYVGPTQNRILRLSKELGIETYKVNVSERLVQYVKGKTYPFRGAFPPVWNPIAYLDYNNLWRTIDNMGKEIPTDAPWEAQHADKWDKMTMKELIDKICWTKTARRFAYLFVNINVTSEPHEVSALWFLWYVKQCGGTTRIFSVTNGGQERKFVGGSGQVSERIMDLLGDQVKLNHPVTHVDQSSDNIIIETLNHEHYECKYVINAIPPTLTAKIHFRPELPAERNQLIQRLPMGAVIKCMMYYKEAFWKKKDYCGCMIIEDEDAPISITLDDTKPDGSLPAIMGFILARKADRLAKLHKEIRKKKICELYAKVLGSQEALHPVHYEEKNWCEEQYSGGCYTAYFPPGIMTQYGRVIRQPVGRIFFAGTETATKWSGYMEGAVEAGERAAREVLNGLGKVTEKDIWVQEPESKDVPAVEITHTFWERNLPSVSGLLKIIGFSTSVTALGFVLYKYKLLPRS
The series is described as follows: Inhibition of human recombinant MAO-A expressed in baculovirus infected BTI-TN-5B1-4 cells assessed as production of hydrogen peroxide from p-tyramine at 100 uM after 15 mins by microplate fluorescence assay. The following applies: human, bti-tn-5b1-4, 0.25 h, 100 µM.

A short description of series [5]: Hydrolytic stability of the compound in water after 1 to 24 hrs by NMR spectroscopic analysis. In kind it is physicochemical.
The species entered for series [6] is Homo sapiens. Briefly: Selectivity ratio of IC50 for human recombinant MAO-A to IC50 for human recombinant MAO-B.
In series [7] the target is T2, Amine oxidase [flavin-containing] B (Homo sapiens, UniProt P27338).
T2 sequence (P27338 whole entry): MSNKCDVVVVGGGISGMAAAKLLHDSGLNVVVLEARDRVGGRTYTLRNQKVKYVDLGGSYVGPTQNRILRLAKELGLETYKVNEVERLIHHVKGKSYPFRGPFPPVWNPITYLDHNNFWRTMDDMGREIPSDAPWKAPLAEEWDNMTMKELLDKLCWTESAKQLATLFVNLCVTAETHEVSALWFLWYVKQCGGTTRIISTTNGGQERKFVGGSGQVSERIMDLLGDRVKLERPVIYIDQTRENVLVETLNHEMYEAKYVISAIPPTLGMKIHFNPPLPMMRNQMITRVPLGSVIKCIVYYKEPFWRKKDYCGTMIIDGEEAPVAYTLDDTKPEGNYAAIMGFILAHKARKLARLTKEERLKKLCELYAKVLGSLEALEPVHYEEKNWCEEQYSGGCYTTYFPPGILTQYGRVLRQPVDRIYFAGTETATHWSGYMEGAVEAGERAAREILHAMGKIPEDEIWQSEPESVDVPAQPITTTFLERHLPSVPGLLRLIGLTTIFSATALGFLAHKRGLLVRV
The series is described as follows: biochemical. In kind it is cell-based, BTI-TN-5B1-4.
Description: Inhibition of human recombinant MAO-B expressed in baculovirus infected BTI-TN-5B1-4 cells assessed as production of hydrogen peroxide from p-tyramine after 15 mins by microplate fluorescence assay

Series [8] concerns the target T1, Amine oxidase [flavin-containing] A. The series is described as follows: Inhibition of human recombinant MAO-A expressed in baculovirus infected BTI-TN-5B1-4 cells assessed as production of hydrogen peroxide from p-tyramine after 15 mins by microplate fluorescence assay.
Series [9] has as its target T2, Amine oxidase [flavin-containing] B. Briefly: Inhibition of human recombinant MAO-B expressed in baculovirus infected BTI-TN-5B1-4 cells assessed as production of hydrogen peroxide from p-tyramine at 100 uM after 15 mins by microplate fluorescence assay. The following applies: for inhibition at 100 µM: BTI-TN-5B1-4, human, 0.25 h; for inhibition (INH): human, bti-tn-5b1-4, 0.25 h, 100 µM.

Series [10] shares this target. Briefly: Inhibition of human recombinant MAO-B expressed in baculovirus infected BTI-TN-5B1-4 cells assessed as production of hydrogen peroxide from p-tyramine at 1 mM after 15 mins by microplate fluorescence assay. The conditions noted are these: bti-tn-5b1-4, 0.25 h, 1000 µM.

The source of these data is ChEMBL document CHEMBL1828496 (Eur J Med Chem, 2011).

As for `CCOC(=O)c1cc2ccc(OCc3ccc(Cl)c(Cl)c3)cc2oc1=O`, the Stability result in series [1], in series [2], in series [3] and in series [5] was “Stable” each time. Besides, in series [4], the “inhibition (INH)” value is “Not Active”. In addition, the Ratio IC50 in series [6] is greater than 10600. In series [7], this compound showed an IC50 of 9.47 nM.
Regarding `O=C(NNc1ccccc1)c1cc2ccccc2oc1=O`, the Stability entry in [1], in series [2], in series [3] and in [5] was “Stable” in each case. Further, the IC50 in [8] was 41.4 µM; in series [7] it was 4520 nM. For the same compound, in series [6], the Ratio IC50 turned out to be 9.16.
Consider `CCOC(=O)c1cc2ccc(OCc3ccc(C(C)(C)C)cc3)cc2oc1=O`, for which the Stability entry in series [1], in [2], in series [3] and in series [5] was “Stable” throughout. Further, in series [4], the “inhibition (INH)” value is on record as “Not Active”. Further, the Ratio IC50 in [6] is greater than 27. This compound also displayed an IC50 in [7] of 3750 nM.
As to `CCOC(=O)c1cc2ccc(OC3CCCCCC3)cc2oc1=O`, the Stability entry in [1], in [2], in [3] and in [5] was “Stable” each time. The IC50 was 46.4 µM in series [8] and 21.5 nM in series [7]. Moreover, the Ratio IC50 in series [6] was determined as 2160.
With `O=C(O)c1cc2cccc(O)c2oc1=O`, in [9], the inhibition at 100 µM amounted to 40%. In addition, the IC50 in series [8] was 59.6 µM. In addition, the Ratio IC50 in series [6] is less than 0.6.
`NNC(=O)c1cc2ccccc2oc1=O`: the Stability result in [1], in [2], in [3] and in series [5] was “Stable” throughout. Moreover, in series [4], the “inhibition (INH)” value is reported as “Not Active”. The Ratio IC50 in series [6] is greater than 31100. The compound further returned an IC50 in [7] of 3.22 nM.
With `CCOC(=O)c1cc2cc(I)cc(I)c2oc1=O`, the “inhibition (INH)” value in series [9] and in series [4] was “Not Active” in each case. In addition, the Stability entry in [1], in series [2], in series [3] and in [5] was “Stable” each time.
As to `O=C(NNc1ccccc1[N+](=O)[O-])c1cc2ccccc2oc1=O`, the “inhibition (INH)” value in [9] is reported as “Not Active”. Also, the IC50 in [8] is 39.6 µM. Besides, the Ratio IC50 in series [6] is less than 0.39.
Consider `O=C(NCCN1CCOCC1)c1ccc(Cl)cc1` [MOCLOBEMIDE], for which the “inhibition (INH)” value in series [10] is “Not Active”.
Regarding `CC(=O)c1cc2cc(Br)ccc2oc1=O`, the inhibition at 100 µM in series [9] was 40%. Moreover, in series [8], the IC50 was determined as 51.6 µM. In series [6], the Ratio IC50 was less than 0.52.
Consider `CCOC(=O)c1cc2cc(OC)ccc2oc1=O`, for which the Stability entry in [1], in series [2], in series [3] and in [5] was “Stable” in each case. The “inhibition (INH)” value in [4] is on record as “Not Active”. Further, the Ratio IC50 in series [6] is greater than 4.6. Besides, the IC50 in series [7] was determined as 21600 nM.
For the compound `CCOC(=O)c1cc2ccc(OCc3ccccc3)cc2oc1=O`, the Stability result in [1], in [2], in series [3] and in series [5] was “Stable” each time. In [4], the “inhibition (INH)” value is listed as “Not Active”. In series [6], the Ratio IC50 is greater than 14300. The same compound showed an IC50 in series [7] of 7.01 nM.
`CCOC(=O)c1cc2ccc(OCc3cccc(Cl)c3)cc2oc1=O`: the Stability entry in series [1], in series [2], in series [3] and in series [5] was “Stable” throughout. Further, the “inhibition (INH)” value in series [4] was “Not Active”. For the same compound, the Ratio IC50 in [6] is greater than 1630. Half-maximal inhibition in [7] (IC50) was put at 61.2 nM.

Broadly, the IC50 is the concentration that inhibits the measured activity by half. For orientation: inhibition means the drop in the measured response relative to a control, in per cent.
